PubChem BioAssay (NCI)
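Exposure lasted 48 hours, with cells grown in 96-well plates and compounds tested at five concentrations. GI50 = concentration required for 50% inhibition of growth. TGI marks complete inhibition of growth.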

How the values were obtained:
Experiment in all cases: DTP human tumour cell line panel, 48 h
[1] = test system: HCC-2998 colon
[2] = test system: NCI-H23 lung
[3] = test system: SN12C renal
[4] = test system: HS 578T breast
[5] = test system: HT29 colon
[6] = test system: CCRF-CEM leukemia
[7] = test system: HL-60(TB) leukemia
[8] = test system: CAKI-1 renal
[9] = test system: UACC-257 melanoma
[10] = test system: MALME-3M melanoma
[11] = test system: MDA-MB-435
[12] = test system: IGROV1 ovarian
[13] = test system: 786-0 renal
[14] = test system: K-562 leukemia
[15] = test system: OVCAR-8 ovarian
[16] = test system: SK-MEL-5 melanoma
[17] = test system: SK-MEL-28 melanoma
[18] = test system: COLO 205 colon
[19] = test system: A549 NSCLC
[20] = test system: LOX IMVI melanoma
[21] = test system: SW-620 colon
[22] = test system: UACC-62 melanoma
[23] = test system: PC-3 prostate
[24] = test system: BT-549 breast
[25] = test system: KM12 colon
[26] = test system: TK-10 renal
[27] = test system: NCI-H460 lung
[28] = test system: SNB-19 CNS
[29] = test system: NCI-H522 lung
[30] = test system: DU-145 prostate
[31] = test system: M14 melanoma
[32] = test system: UO-31 renal
[33] = test system: HOP-92 NSCLC
[34] = test system: HCT-15 colon
[35] = test system: OVCAR-5 ovarian
[36] = test system: SF-539 CNS
[37] = test system: NCI/ADR-RES ovarian
[38] = test system: MOLT-4 leukemia
[39] = test system: A498 renal
[40] = test system: SK-OV-3 ovarian
[41] = test system: SF-268 CNS
[42] = test system: HOP-62 NSCLC
[43] = test system: T-47D breast
[44] = test system: RXF 393 renal
[45] = test system: NCI-H226 lung
[46] = test system: RPMI-8226 leukemia
[47] = test system: OVCAR-3 ovarian
[48] = test system: ACHN renal
[49] = test system: OVCAR-4 ovarian
[50] = test system: MCF7 breast
[51] = test system: SK-MEL-2 melanoma
[52] = test system: SF-295 CNS
[53] = test system: MDA-MB-231 breast
[54] = test system: SNB-75 CNS
[55] = test system: U251 CNS
[56] = test system: HCT-116 colon
[57] = test system: EKVX NSCLC

CCN(Cc1ccccc1F)c1ccc(CO)c(Cl)c1
GI50 [1]: 8.41 µM
TGI [1]: 25 µM
GI50 [2]: 14.6 µM
TGI [2]: 57.1 µM
GI50 [3]: 13.5 µM
TGI [3]: 38.6 µM
GI50 [4]: 26.5 µM
TGI [4]: > 66.4 µM
GI50 [5]: 3.38 µM
TGI [5]: 21.4 µM
GI50 [6]: 24.2 µM
TGI [6]: > 75.4 µM
GI50 [7]: 17.7 µM
TGI [7]: 47.3 µM
GI50 [8]: 3.81 µM
TGI [8]: 39.9 µM
GI50 [9]: < 0.0346 µM
TGI [9]: 0.134 µM
GI50 [10]: 17.7 µM
TGI [10]: 39.5 µM
GI50 [11]: 17.2 µM
TGI [11]: 40.2 µM
GI50 [12]: < 0.0231 µM
GI50 [13]: 15.9 µM
TGI [13]: 41 µM
GI50 [14]: 0.535 µM
TGI [14]: > 39 µM
GI50 [15]: 13.2 µM
TGI [15]: > 57 µM
GI50 [16]: 2.66 µM
TGI [16]: 21.1 µM
GI50 [17]: 13.5 µM
TGI [17]: 31.3 µM
GI50 [18]: 2.45 µM
TGI [18]: 7.86 µM
GI50 [19]: 1.03 µM
TGI [19]: 21.8 µM
GI50 [20]: 20.3 µM
TGI [20]: 44.2 µM
GI50 [21]: 0.49 µM
TGI [21]: > 46.5 µM
GI50 [22]: 0.0409 µM
TGI [22]: 0.992 µM
GI50 [23]: 18.9 µM
TGI [23]: > 62.8 µM
GI50 [24]: 15.8 µM
TGI [24]: 30.6 µM
GI50 [25]: 18.5 µM
TGI [25]: 47.7 µM
GI50 [26]: < 0.0201 µM
TGI [26]: 0.0651 µM
GI50 [27]: 0.0604 µM
TGI [27]: 11 µM
GI50 [28]: 28.4 µM
TGI [28]: > 94.6 µM
GI50 [29]: 16.3 µM
TGI [29]: 39.1 µM
GI50 [30]: 18.4 µM
TGI [30]: > 60 µM
GI50 [31]: 19.9 µM
TGI [31]: 41.7 µM
GI50 [32]: 13.2 µM
TGI [32]: 46.4 µM
GI50 [33]: 0.301 µM
TGI [33]: 8.72 µM
GI50 [34]: 11.5 µM
TGI [34]: 47.2 µM
GI50 [35]: 0.0428 µM
TGI [35]: 0.234 µM
GI50 [36]: 16.8 µM
TGI [36]: 34.5 µM
GI50 [37]: 15.9 µM
TGI [37]: 52.8 µM
GI50 [38]: 22.5 µM
TGI [38]: 56.2 µM
GI50 [39]: < 0.0179 µM
TGI [39]: 0.0594 µM
GI50 [40]: 4.28 µM
TGI [40]: 17.9 µM
GI50 [41]: 26.6 µM
TGI [41]: > 60.7 µM
GI50 [42]: 1.34 µM
TGI [42]: 17.8 µM
GI50 [43]: < 0.0213 µM
TGI [43]: 0.177 µM
GI50 [44]: 4.35 µM
TGI [44]: 24.8 µM
GI50 [45]: 0.0137 µM
TGI [45]: 0.0511 µM
GI50 [46]: 0.796 µM
TGI [46]: 22.8 µM
GI50 [47]: 0.176 µM
TGI [47]: 1.5 µM
GI50 [48]: 19.2 µM
TGI [48]: > 53.4 µM
GI50 [49]: 0.0793 µM
TGI [49]: 5.88 µM
GI50 [50]: 0.0892 µM
TGI [50]: 12.7 µM
GI50 [51]: 1.81 µM
TGI [51]: 19.9 µM
GI50 [52]: 0.7 µM
TGI [52]: 17.2 µM
GI50 [53]: 16.3 µM
TGI [53]: 41.7 µM
GI50 [54]: 11 µM
TGI [54]: 46.4 µM
GI50 [55]: 0.256 µM
TGI [55]: 24.2 µM
GI50 [56]: < 0.0273 µM
TGI [56]: 11.3 µM

COc1cc2c(cc1OC)[C@@H]1C(=O)c3cc4c(cc3[C@@H]1N(CCN(C)C)C2=O)OCO4
GI50 [1]: 0.609 µM
TGI [1]: 9.77 µM
GI50 [2]: 0.162 µM
TGI [2]: 5.09 µM
GI50 [3]: 0.0444 µM
TGI [3]: 3.74 µM
GI50 [4]: 11.1 µM
TGI [4]: 38.5 µM
GI50 [5]: 0.104 µM
TGI [6]: > 100 µM
GI50 [7]: 0.0237 µM
TGI [7]: 0.0752 µM
TGI [8]: 1.08 µM
GI50 [9]: 0.784 µM
TGI [9]: > 33.1 µM
GI50 [10]: 0.188 µM
TGI [10]: 3.66 µM
GI50 [11]: 0.787 µM
TGI [11]: 23.5 µM
GI50 [12]: 0.445 µM
TGI [12]: > 100 µM
GI50 [13]: < 0.0203 µM
TGI [13]: 5.02 µM
GI50 [14]: 0.27 µM
TGI [14]: > 42.4 µM
GI50 [15]: 0.661 µM
TGI [15]: 9.66 µM
GI50 [16]: 0.144 µM
TGI [16]: 0.935 µM
GI50 [17]: 2.19 µM
TGI [17]: > 41.3 µM
GI50 [18]: 0.663 µM
TGI [18]: > 35.5 µM
GI50 [19]: 0.171 µM
TGI [19]: 3.67 µM
GI50 [21]: 0.0369 µM
TGI [21]: 18.7 µM
GI50 [22]: < 0.0146 µM
TGI [22]: 0.544 µM
GI50 [23]: 0.316 µM
TGI [23]: 13.3 µM
GI50 [24]: 0.838 µM
TGI [24]: 22.9 µM
GI50 [25]: 0.355 µM
TGI [25]: 2.17 µM
GI50 [26]: 1.53 µM
TGI [26]: 13.7 µM
GI50 [27]: < 0.0234 µM
TGI [27]: 2.36 µM
GI50 [28]: 1.73 µM
TGI [28]: > 47.3 µM
GI50 [29]: 0.0611 µM
TGI [29]: 3.2 µM
GI50 [30]: 0.03 µM
TGI [30]: 4.84 µM
GI50 [31]: 0.0814 µM
TGI [31]: 11.2 µM
GI50 [32]: 0.0855 µM
GI50 [33]: 0.208 µM
TGI [33]: 8.87 µM
GI50 [34]: 0.368 µM
TGI [34]: 5.82 µM
GI50 [35]: 1.1 µM
TGI [35]: 15.5 µM
GI50 [36]: 0.0669 µM
TGI [36]: 11.1 µM
GI50 [37]: 0.337 µM
TGI [37]: 14.7 µM
GI50 [57]: 1.26 µM
TGI [57]: 21.5 µM
GI50 [39]: 2.78 µM
TGI [39]: 9.43 µM
GI50 [40]: 4.2 µM
TGI [40]: > 65.2 µM
GI50 [41]: 0.056 µM
TGI [41]: 18.1 µM
GI50 [42]: 0.0355 µM
TGI [42]: 10.6 µM
GI50 [43]: 0.923 µM
TGI [43]: 31.3 µM
GI50 [44]: 1.26 µM
TGI [44]: > 21.6 µM
GI50 [45]: 0.21 µM
TGI [45]: 2.28 µM
GI50 [46]: 0.0289 µM
TGI [46]: 0.349 µM
GI50 [47]: 0.349 µM
TGI [47]: 1.96 µM
GI50 [48]: 0.0179 µM
TGI [48]: 0.452 µM
GI50 [49]: 0.768 µM
TGI [49]: 18.3 µM
GI50 [50]: < 0.0366 µM
TGI [50]: 14.2 µM
GI50 [51]: 11.1 µM
TGI [51]: > 100 µM
GI50 [52]: 0.0194 µM
TGI [52]: 37.1 µM
GI50 [53]: 1.06 µM
TGI [53]: 11.8 µM
GI50 [54]: 11.1 µM
TGI [54]: 30.7 µM
GI50 [55]: 0.0427 µM
TGI [55]: 12 µM
GI50 [56]: 0.116 µM
TGI [56]: 1.53 µM
